Each block holds one compound with its values, some of them ahead of it.
Columns and labels:
[1] = biological target: T1, human leukocyte elastase (HLE) (Homo sapiens, UniProt P08246); assay: in vitro anti-elastase activity, substrate Me-OSAAPV-p-NA, spectrophotometry; type: biochemical
T1 sequence (P08246 30-267): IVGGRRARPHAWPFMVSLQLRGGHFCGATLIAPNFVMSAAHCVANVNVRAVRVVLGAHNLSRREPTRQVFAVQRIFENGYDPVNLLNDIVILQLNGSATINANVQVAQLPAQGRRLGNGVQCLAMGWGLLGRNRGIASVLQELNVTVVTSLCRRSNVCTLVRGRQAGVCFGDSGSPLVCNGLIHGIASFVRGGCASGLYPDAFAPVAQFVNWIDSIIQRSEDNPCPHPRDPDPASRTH
Description: The in vitro anti-elastase activity of compounds according to the invention with respect to human leukocyte elastase (HLE) was determined. […]
The percentage inhibition of the control elastase activity is then determined by spectrophotometry.

[2] = tested on: surviving human skin treated with human leukocyte elastase (HLE); assay: ex vivo activity on fresh sections of human skin treated with HLE for 2 hours, morphometric quantification of elastic fibres; type: cell-based; conditions: 10 μg/ml HLE + 0.1% compound, 2 hours at 20° C.
Description: (§1) The ex vivo activity of the compound of Example 2 was evaluated on surviving human skin treated with human leukocyte elastase (HLE).
Fresh sections of human skin, obtained from 2 different donors, are treated for 2 hours at 20° C. with 20 μl of buffer solution (pH 7.4) optionally comprising 10 μg/ml of HLE and optionally 0.1% of the test compound, optionally predissolved in ethanol.
(§2) The elastic fibres are stained blue with (+)-catechin and morphometrically quantified by computer-assisted image analysis. The percentage of average dermal surface area occupied by the elastic fibres is thus evaluated.

[3] = tested on: surviving human skin irradiated with UVA (8 J/cm^2); assay: activity on surviving human skin irradiated with UVA, morphometric analysis of elastic fibres and collagen; type: cell-based; conditions: UVA 8 J/cm^2 once + 5 μl of 0.2% compound every two days, 7 days at 37° C.
Description: The activity of the compound of Example 2 on surviving human skin irradiated with UVA (8 J/cm^2) was evaluated.
(§3) Fragments of normal human skin obtained from four different donors are placed in inserts positioned in culture wells. Culture medium supplemented with antibiotics is placed in the bottom of the wells. A passage is carried out by slow diffusion between the two compartments by means of a porous membrane (pore size: 12 μm).
(§4) The culture medium is freshened every three days.
5 μl of the test compound, predissolved at a concentration of 0.2% in ethanol, is added to the skin fragments every two days.
The skins are kept alive for 7 days at 37° C.
The skins are irradiated once at 8 J/cm^2 (Vilbert-Lourmat RMX-3W lamp).
as §2

[4] = tested on: surviving human skin treated with human leukocyte elastase (HLE); assay: ex vivo activity on human skin fragments kept alive in culture for 10 days with HLE, morphometric quantification of elastic fibres; type: cell-based; conditions: three donors; 0.5 μg/ml HLE + 5 μl of 0.2% compound in ethanol every two days, 10 days at 37° C.; control 7.4%, HLE alone 5.1%
Description: as §1
as §3, with “three” for “four”
as §4
0.5 μg of HLE per ml of culture medium is optionally added to the skin fragments.
5 μl of the test compound, predissolved at a concentration of 0.2% by weight in ethanol, is also added every two days.
The skins are kept alive for 10 days at 37° C.
as §2

[5] = compound concentration 0.1%, HLE 40 milliunits per ml, 37° C., 60 minutes

SMILES: CCOC(=O)CNC(=O)C(C(C)C)N(Cc1ccccc1)C(=O)CP(=O)(OCC)OCC (centres unmarked) [Compound B, ethyl [2-{benzyl((diethoxyphosphoryl)acetyl]amino}-3-methylbutyrylamino)acetate]
% inhibition of the control elastase activity [1, 5]: 17%

% inhibition of the control elastase activity [1, 5]: 20%
SMILES: CC(=O)N(Cc1ccccc1)C(C(=O)NCC(=O)O)C(C)C (centres unmarked) [Compound C, [2-(acetylbenzylamino)-3-methylbutyrylamino]acetic acid]

% inhibition of the control elastase activity [1, 5]: 13%
SMILES: CCOC(=O)CNC(=O)C(C(C)C)N(Cc1ccccc1)C(C)=O (centres unmarked) [Compound D, ethyl [2-(acetylbenzylamino)-3-methylbutyrylamino]acetate]

% inhibition of the control elastase activity [1, 5]: 67% | % inhibition of the control elastase activity ([1]; concentration of compound A 0.01%): 53% | % inhibition of the control elastase activity ([1]; concentration of compound A 0.05%): 50% | % inhibition of the control elastase activity ([1]; concentration of compound A 0.1% (concentration series)): 68% | % inhibition of the control elastase activity ([1]; concentration of compound A 0.2%): 68%
SMILES: CC(=O)N(c1cccc(C(F)(F)F)c1)C(C(=O)NCC(=O)O)C(C)C (centres unmarked) [Example 2, {2-[acetyl (3-trifluoromethylphenyl)amino]-3-methylbutyrylamino}acetic acid]
% of surface area occupied by the elastic fibres ([2]; Skin 1, control 12.7%, HLE alone 4.85%): 13.95% | % of surface area occupied by the elastic fibres ([2]; Skin 2, control 15.25%, HLE alone 6.85%): 11.85% | Morphometric analysis of the elastic fibres (superficial dermis) ([3]; untreated 6.75%, UVA alone 3.9%): 6.8% | Morphometric analysis of the collagen (superficial dermis) ([3]; untreated 87%, UVA alone 81%): 92% | % of surface area occupied by the elastic fibres [4]: 7.1% | inhibition of the elastase activity (in words) [1]: strong inhibition of the elastase activity, even in a small amount
